Laboratory results: patent publication US20260184663A1, “INDENE COMPOUNDS, PHARMACEUTICAL COMPOSITIONS THEREOF, AND THEIR THERAPEUTIC APPLICATIONS” (NucMito Pharmaceuticals co. Ltd., priority 2022, published 2026)
Where two headings read alike, the source gives them in different places.

How the values were obtained:
Format in all cases: cell-based
[1] = tested on: alpha-smooth muscle actin (α-SMA); assay: Inhibition of TGF-β induced expression of alpha-smooth muscle actin (α-SMA) in CFSC cells (western blot); conditions: compound at 10 μM, TGF-β (10 ng/mL), 24 hours, band intensity vs TGF-β only
Outline: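 CFSC hepatic stellate cells in serum-free DMEM treated 24 h at 37 °C with compound at 10 μM plus TGF-β (10 ng/mL). α-SMA measured by Western blot with β-actin, ECL detection, densitometry. Percent inhibition is decrease in band intensity versus TGF-β-only cells.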

[2] = tested on: MDA-MB-231 (breast cancer); assay: Antiproliferative activity (CCK-8 cell viability), MDA-MB-231; conditions: Homo sapiens, 72 h; for inhibition at 3.3 µM: Compound concentration: 3.3 μM; for inhibition at 10 µM: Compound concentration: 10 μM; for inhibition at 30 µM: Compound concentration: 30 μM
Outline: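 MDA-MB-231 breast cancer cells, grown in DMEM with 10% FBS, were plated in 96-well plates at 2,000-5,000 cells/well. Once attached, they were exposed to compound and incubated at 37° C. for 72 h. Viability was then measured with CCK-8 (10 μL per well, 4 h at 37° C.) by absorbance at 450 nm, relative to DMSO vehicle wells.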

HepG2 (liver cancer) = assay: Antiproliferative activity (CCK-8 cell viability), HepG2; conditions: Homo sapiens, 72 h; for inhibition at 3.3 µM: Compound concentration: 3.3 μM; for inhibition at 10 µM: Compound concentration: 10 μM; for inhibition at 30 µM: Compound concentration: 30 μM
Outline: (§1)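 Cells grown in DMEM (HepG2, SW480), MEM (HeLa) or F-12K (A549), each with 10% FBS, then exposed to compound at 3.3, 10 or 30 μM for 72 h at 37 °C. CCK-8 absorbance at 450 nm; viability expressed as percent of DMSO-treated cells, graded as growth inhibition bands.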

SW480 (colon cancer) = assay: Antiproliferative activity (CCK-8 cell viability), SW480; conditions: Homo sapiens, 72 h; for inhibition at 3.3 µM: Compound concentration: 3.3 μM; for inhibition at 10 µM: Compound concentration: 10 μM; for inhibition at 30 µM: Compound concentration: 30 μM
Outline: as §1

[3] = tested on: B16F10 (malignant melanoma); assay: Antiproliferative activity (CCK-8 cell viability), B16F10; conditions: Mus musculus, 72 h, read-out: Antiproliferative activity in cancerous cells, B16F10 (inhibition of cell growth); for inhibition at 3.3 µM: B16-F10, Compound concentration: 3.3 μM; for inhibition at 10 µM: B16-F10, Compound concentration: 10 μM
Outline: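 B16F10 melanoma cells grown in DMEM with 10% FBS were plated in 96-well plates at 2,000-5,000 cells/well. After attachment they were exposed to compound in medium for 72 h at 37° C. CCK-8 solution (10 μL) was then added, and after 4 h at 37° C absorbance was read at 450 nm.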

[4] = tested on: A431 (epidermoid carcinoma); assay: Antiproliferative activity (CCK-8 cell viability), A431; conditions: Homo sapiens, 72 h, read-out: Antiproliferative activity in cancerous cells, A431 (inhibition of cell growth); for inhibition at 3.3 µM: A-431, Compound concentration: 3.3 μM; for inhibition at 10 µM: A-431, Compound concentration: 10 μM
Outline: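 A431 epidermoid carcinoma cells grown in DMEM with 10% FBS were plated at 2,000-5,000 cells/well in 96-well plates. After attachment they were exposed to compound at 3.3 μM, 10 μM, or 30 μM for 72 h at 37° C. Viability was then assessed by CCK-8 against DMSO vehicle-treated wells.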

[5] = tested on: A549 (lung adenocarcinoma); assay: Antiproliferative activity (CCK-8 cell viability), A549; conditions: Homo sapiens, 72 h; for inhibition at 3.3 µM: Compound concentration: 3.3 μM; for inhibition at 10 µM: Compound concentration: 10 μM; for inhibition at 30 µM: Compound concentration: 30 μM
Outline: as §1

HeLa (cervical cancer) = assay: Antiproliferative activity (CCK-8 cell viability), HeLa; conditions: Homo sapiens, 72 h; for inhibition at 3.3 µM: Compound concentration: 3.3 μM; for inhibition at 10 µM: Compound concentration: 10 μM; for inhibition at 30 µM: Compound concentration: 30 μM
Outline: as §1

[6] = read-out: Antiproliferative activity in cancerous cells, MDA-MB-231 (inhibition of cell growth)
[7] = read-out: Antiproliferative activity in cancerous cells, HepG2 (inhibition of cell growth)
[8] = read-out: Antiproliferative activity in cancerous cells, SW480 (inhibition of cell growth)
[9] = read-out: Antiproliferative activity in cancerous cells, A549 (inhibition of cell growth)
[10] = read-out: Antiproliferative activity in cancerous cells, HELA (inhibition of cell growth)
[11] = read-out: Antiproliferative activity in cancerous cells, HepG2

Row | Compound | inhibition at 10 µM [1] [%] | inhibition at 3.3 µM [2, 6] [%] | inhibition at 10 µM [2, 6] [%] | inhibition at 3.3 µM (HepG2 (liver cancer); [7]) [%] | inhibition at 10 µM (HepG2 (liver cancer); [7]) [%] | inhibition at 3.3 µM (SW480 (colon cancer); [8]) [%] | inhibition at 10 µM (SW480 (colon cancer); [8]) [%] | inhibition at 3.3 µM [3] [%] | inhibition at 10 µM [3] [%] | inhibition at 3.3 µM [4] [%] | inhibition at 10 µM [4] [%] | inhibition at 3.3 µM [5, 9] [%] | inhibition at 10 µM [5, 9] [%] | inhibition at 3.3 µM (HeLa (cervical cancer); [10]) [%] | inhibition at 10 µM (HeLa (cervical cancer); [10]) [%] | inhibition at 30 µM (HepG2 (liver cancer); [11]) [%] | further results
1 | CCC1=C(CC(=O)O)c2cc(F)ccc2/C1=C\c1ccc(Oc2ccc(F)cc2)cc1 [C6, (Z)-2-(2-Ethyl-5-fluoro-1-(4-(4-fluorophenoxy)benzylidene)-1H-inden-3-yl)acetic acid] | > 80 | ≥ 50 | ≥ 50 | < 30 | 30 to 50 | ≥ 50 | ≥ 50 | 30 to 50 | ≥ 50 | 30 to 50 | ≥ 50 | 30 to 50 | ≥ 50 | ≥ 50 | ≥ 50 |  | 
2 | COc1ccc2c(c1)C(CC(=O)O)=C(C)/C2=C/c1cccc(COc2ccc(F)cc2)c1 [B24, (Z)-2-(1-(3-((4-Fluorophenoxy)methyl)benzylidene)-5-methoxy-2-methyl-1H-inden-3-yl)acetic acid] | > 80 | 30 to 50 | ≥ 50 | < 30 | < 30 | < 30 | < 30 | < 30 | ≥ 50 | < 30 | < 30 | 30 to 50 | ≥ 50 | < 30 | < 30 | 30 to 50 | 
3 | CC1=C(CC(=O)O)c2c(F)ccc(F)c2/C1=C/c1ccc(C(F)(F)F)cc1 [E15, (E)-2-(4,7-Difluoro-2-methyl-1-(4-(trifluoromethyl)benzylidene)-1H-inden-3-yl)-acetic acid] | < 30 | ≥ 50 | ≥ 50 | < 30 | < 30 | < 30 | < 30 | < 30 | < 30 | < 30 | < 30 | < 30 | < 30 | < 30 | 30 to 50 |  | inhibition at 30 µM [2, 6]: ≥ 50%; inhibition at 30 µM (HepG2 (liver cancer); [7]): < 30%; inhibition at 30 µM (SW480 (colon cancer); [8]): < 30%; inhibition at 30 µM ([3]; B16-F10, Compound concentration: 30 μM): ≥ 50%; inhibition at 30 µM ([4]; A-431, Compound concentration: 30 μM): ≥ 50%; inhibition at 30 µM [5, 9]: ≥ 50%; inhibition at 30 µM (HeLa (cervical cancer); [10]): ≥ 50%
4 | CC1=C(CC(=O)O)c2c(F)cccc2/C1=C\c1ccc(Oc2ccc(F)cc2)cc1 [C9, (Z)-2-(4-Fluoro-1-(4-(4-fluorophenoxy)benzylidene)-2-methyl-1H-inden-3-yl)-acetic acid] | < 30 | 30 to 50 | 30 to 50 | 30 to 50 | < 30 | < 30 | < 30 | ≥ 50 | ≥ 50 | 30 to 50 | 30 to 50 | < 30 | < 30 | < 30 | < 30 | 30 to 50 | inhibition at 30 µM ([2]; read-out: Antiproliferative activity in cancerous cells, MDA-MB-231): 30 to 50%; inhibition at 30 µM (SW480 (colon cancer); read-out: Antiproliferative activity in cancerous cells, SW480): < 30%; inhibition at 30 µM ([5]; read-out: Antiproliferative activity in cancerous cells, A549): < 30%; inhibition at 30 µM (HeLa (cervical cancer); read-out: Antiproliferative activity in cancerous cells, HELA): < 30%
